The results in this text go back to patent US11174243B2, “Succinate forms and compositions of Bruton's tyrosine kinase inhibitors” (Sunesis Pharmaceuticals, Inc., priority 2016, dated 2021).

In brackets after ≈: the same amount, converted by molar mass.

One series addresses human recombinant WT BTK (Homo sapiens, UniProt Q06187). Briefly: FRET recombinant kinase assay, WT BTK. Type of series: biochemical.
The test system of the next series is primary CLL B cells. Briefly: Viability of primary patient CLL cells (Annexin V and propidium iodide flow cytometry). As to conditions: Homo sapiens, B-cell, 48 hours, read-out: viability, that of the untreated condition. The format is cell-based. As for the experimental part: Methods: Primary CLL B cells were isolated from the whole blood of consented patients by FICOLL density centrifugation and rosette-sep negative selection. Annexin V and propidium iodide flow cytometry was used to measure patient CLL cell viability and 7AAD was used to measure viability in stromal co-culture. CD40 and CD86 expression was evaluated via flow cytometry subsequent to sustained 3.2 μM CpG stimulation. BCR signaling in primary CLL cells was investigated by immunoblot succeeding 1 hour treatment and following 1 hour or 24 hours of incubation with Compound 1 in XLA cell lines. MTS values were read after 24 hours of drug incubation. ITK inhibition was investigated via immunoblot after stimulation with anti-CD3 and anti-CD28 and incubation with Compound 1 for 1 hour. Compound 1 was used at a concentration of 1 μM in preclinical studies unless otherwise noted.

Another series deals with T1, TXK (Homo sapiens, UniProt P42681).
T1 sequence (P42681 1-527): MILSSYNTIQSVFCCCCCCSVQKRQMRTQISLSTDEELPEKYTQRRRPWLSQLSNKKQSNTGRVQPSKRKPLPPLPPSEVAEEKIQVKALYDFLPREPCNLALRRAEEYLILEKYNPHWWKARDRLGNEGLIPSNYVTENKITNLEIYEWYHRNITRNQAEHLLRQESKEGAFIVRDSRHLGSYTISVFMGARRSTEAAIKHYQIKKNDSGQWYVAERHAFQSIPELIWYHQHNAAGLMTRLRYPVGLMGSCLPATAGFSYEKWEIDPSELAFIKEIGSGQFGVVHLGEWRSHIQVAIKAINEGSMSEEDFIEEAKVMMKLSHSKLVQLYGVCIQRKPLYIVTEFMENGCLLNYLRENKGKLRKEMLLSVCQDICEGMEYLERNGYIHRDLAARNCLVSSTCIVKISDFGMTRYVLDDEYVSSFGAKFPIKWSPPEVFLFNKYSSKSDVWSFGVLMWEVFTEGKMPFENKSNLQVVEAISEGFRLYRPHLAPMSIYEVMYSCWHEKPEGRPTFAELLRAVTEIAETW
Briefly: Kinase selectivity, TXK (Kd).

Series [1] can be described thus: Solubility of Compound 2 in solvent systems (slurries, HPLC). The format is physicochemical. As to conditions: thermodynamic from solid, after one day at 20° C. The procedure: Slurries were set up in the solvents reported in Table 1 by weighing approximately 200 mg of Compound 2, suspending the solid in 0.5 mL of solvent and checking that excess solid remained un-dissolved. The prepared samples were also used to calculate Compound 2 solubility in the solvent systems used.
The slurries prepared for the long term slurry experiments were sampled after one day at 20° C. to measure the solubility of Compound 2 in the solvent systems used. The solubility data were obtained by HPLC with respect to a response factor; six samples of Compound 2, dissolved in acetonitrile/methanol 40/60 at known concentration, were prepared and injected in HPLC. The resulting HPLC areas were used to calculate the HPLC response factor for Compound 2 (data not shown).

Series [2] is described as follows: Phase 1a single-dose study in humans: safety. Type of series: in vivo, human. As for the experimental part: A first-in-human Phase 1a randomized, double-blind, placebo-controlled, single-dose study, was conducted in 3 stages: In Stage 1, four sequential cohorts of 8 subjects each were randomly assigned to receive progressively higher single oral administrations of Compound 2 at doses of 50, 100, 200, and 300 mg (n=6 per cohort; 3 males and 3 females) or placebo (n=2 per cohort; 1 male and 1 female).
The primary endpoint of safety was assessed by monitoring adverse events (AEs), laboratory abnormalities, and cardiac findings (ECG). Secondary endpoints included evaluation of the PK parameters of area under the plasma concentration-time curve (AUC), maximum plasma concentration (Cmax), time of maximum concentration (Tmax), apparent volume of distribution (Vd/F), terminal elimination half-life (t1/2), terminal elimination rate constant (λz), and apparent clearance (Cl/F) as well as the PD parameter of BTK inhibition in whole blood.

Series [3] in a line: Phase 1a study Stage 2: food effect on pharmacokinetics. As to conditions: 200 mg oral. The format is in vivo, human. As for the experimental part: In Stage 2, the effects of food on the pharmacokinetics of Compound 2 were assessed. In this stage, 12 newly enrolled subjects (6 males, 6 females; Cohort 6) were administered Compound 2 on two separate occasions, either in a fasting or fed state, with a period of ≥72 hours between the two doses. The Compound 2 dose level was 200 mg. The 12 subjects were randomized such that 6 subjects (3 males, 3 females) received Compound 2 after an overnight fast, and 6 subjects (3 males, 3 females) received Compound 2 after ingestion of a standardized, high-fat meal. Approximately 4 days later, the subjects were crossed over so that those who received Compound 2 without food in the first period then received the drug with food, while those who received Compound 2 with food in the first period then received the drug without food.
The effects of food on the pharmacokinetics of Compound 2 were assessed after oral administration of 200 mg Compound 2 to 12 subjects in the fed and fasted states. The absorption rate of Compound 2 in fed state was decreased, with Tmax delayed by 2 hours and Cmax decreased by about 30%; however, there was no impact on the extent of absorption (AUC) and elimination (T½) of Compound 2.

Sequence of human recombinant WT BTK (Q06187 whole entry): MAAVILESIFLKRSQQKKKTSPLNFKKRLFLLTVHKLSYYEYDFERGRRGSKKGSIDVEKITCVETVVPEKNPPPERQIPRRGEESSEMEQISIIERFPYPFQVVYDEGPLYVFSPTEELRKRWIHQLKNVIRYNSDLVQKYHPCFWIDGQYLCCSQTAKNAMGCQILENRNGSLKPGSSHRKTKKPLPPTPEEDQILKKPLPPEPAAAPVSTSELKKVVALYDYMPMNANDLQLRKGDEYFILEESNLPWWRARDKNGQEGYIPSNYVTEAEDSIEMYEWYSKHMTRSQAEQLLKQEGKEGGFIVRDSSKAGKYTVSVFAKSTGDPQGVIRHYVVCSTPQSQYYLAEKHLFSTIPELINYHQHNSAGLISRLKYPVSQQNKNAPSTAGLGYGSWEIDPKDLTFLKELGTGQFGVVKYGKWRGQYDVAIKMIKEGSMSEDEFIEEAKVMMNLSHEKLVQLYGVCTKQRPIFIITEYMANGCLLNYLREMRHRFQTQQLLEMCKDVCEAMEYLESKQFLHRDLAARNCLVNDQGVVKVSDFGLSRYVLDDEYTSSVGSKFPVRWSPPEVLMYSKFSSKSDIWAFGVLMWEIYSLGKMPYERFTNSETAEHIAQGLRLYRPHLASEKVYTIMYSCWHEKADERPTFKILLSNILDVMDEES

Take `NC(=O)[C@H]1CCN(c2ncnc(N)c2F)C[C@@H]1N1CCC[C@@H](Nc2cc(Cl)cc(C(F)(F)F)c2)C1=O` [Compound 1, (3R,3′R,4′S)-1′-(6-amino-5-fluoropyrimidin-4-yl)-3-((3-chloro-5-(trifluoromethyl)phenyl)amino)-2-oxo-[1,3′-bipiperidine]-4′-carboxamide]: the IC50 at human recombinant WT BTK amounted to 4.6 nM. Also, the viability at 0.1 µM in the series with primary CLL B cells (0.1 μM) is 96.7%. Also, the viability at 1 µM in the series on primary CLL B cells (1.0 μM) is 96.1%. For the same molecule, the viability at 10 µM in the series on primary CLL B cells (10.0 μM) was found to be 88.1%. This molecule displayed an equilibrium dissociation constant (Kd) at TXK of at least 200 nM.

Regarding `NC(=O)[C@H]1CCN(c2ncnc(N)c2F)C[C@@H]1N1CCC[C@@H](Nc2cc(Cl)cc(C(F)(F)F)c2)C1=O` [Compound 2], the solubility at 1 day in series [1] (organic solvent or mixture, 1,4-dioxane) turned out to be 22 mg/mL (≈ 41.5 mM); in series [1] (organic solvent or mixture, 2-propanol/water 90/10) it was 41 mg/mL (≈ 77.4 mM); in series [1] (organic solvent or mixture, 2-propanol) it was 11 mg/mL (≈ 20.8 mM); in series [1] (organic solvent or mixture, Acetone), 11 mg/mL (≈ 20.8 mM); in series [1] (organic solvent or mixture, Cyclohexanone), 16 mg/mL (≈ 30.2 mM); in series [1] (organic solvent or mixture, Ethanol/water 90/10), 49 mg/mL (≈ 92.5 mM). Also, the solubility at 1 day in series [1] (organic solvent or mixture, Ethanol) worked out at 21 mg/mL (≈ 39.6 mM); in series [1] (organic solvent or mixture, Ethyl acetate), 2 mg/mL (≈ 3.77 mM); in series [1] (organic solvent or mixture, Isopropyl acetate), 1 mg/mL (≈ 1.89 mM); in series [1] (organic solvent or mixture, Methanol/water 90/10) it was 100 mg/mL (≈ 189 mM); in series [1] (organic solvent or mixture, Methanol), 103 mg/mL (≈ 194 mM); in series [1] (organic solvent or mixture, Tert-butylmethyl ether) it was 1 mg/mL (≈ 1.89 mM). The solubility at 1 day in series [1] (Water) is 1 mg/mL (≈ 1.89 mM). The “subjects with treatment-emergent AEs (TEAEs)” value in series [2] (24 subjects, single oral doses 50-300 mg, 8 subjects) is listed as 33%. For the same molecule, the “subjects with treatment-related TEAEs” value in series [2] (24 subjects, single oral doses 50-300 mg, six subjects) was determined as 25%. Further, the “Grade 3 or higher AEs” value in series [2] (single oral doses) is reported as “No Grade 3 or higher AEs were reported”. Further, in series [2] (single oral doses), the SAEs result is reported as “No SAEs were reported”. Further, the dose-dependent toxicity entry in series [2] (single oral doses 50-300 mg) is reported as “No obvious pattern of dose-dependent toxicity was observed”. In addition, the “apparent total body clearance and volume of distribution, fed vs fasted” value in series [3] is “comparable in both food conditions”. Also, in series [3] (fed vs fasted), the “impact of food on extent of absorption (AUC) and elimination (T½)” value is “no impact”. In addition, the “decrease of Cmax in fed state” value in series [3] (fed vs fasted, 12 subjects) is reported as “about 30%”. Further, the Tmax in series [3] (both sexes, human, plasma, fed vs fasted, 12 subjects, read-out: delay of Tmax in fed state) stood at 2 h.
